From patent US9346815B2, “5-chloro-2-difluoromethoxyphenyl pyrazolopyrimidine compounds, compositions and methods of use thereof” (Genentech, Inc., priority 2014, dated 2016)
pKi: −log10 of the molar value.

How the values were obtained:
[1] = molecular target: isolated recombinant JAK1 kinase domain (Homo sapiens (Human), UniProt P23458); test: JAK1 enzyme assay (Caliper LabChip, peptide phosphorylation); assay type: biochemical; details: isolated recombinant JAK1 kinase domain, 25 μM ATP
[2] = molecular target: isolated recombinant JAK2 kinase domain (Homo sapiens (Human), UniProt O60674); test: JAK2 enzyme assay (Caliper LabChip, peptide phosphorylation); assay type: biochemical; details: 25 μM ATP
isolated recombinant JAK2 kinase domain, sequence (O60674 849-1124): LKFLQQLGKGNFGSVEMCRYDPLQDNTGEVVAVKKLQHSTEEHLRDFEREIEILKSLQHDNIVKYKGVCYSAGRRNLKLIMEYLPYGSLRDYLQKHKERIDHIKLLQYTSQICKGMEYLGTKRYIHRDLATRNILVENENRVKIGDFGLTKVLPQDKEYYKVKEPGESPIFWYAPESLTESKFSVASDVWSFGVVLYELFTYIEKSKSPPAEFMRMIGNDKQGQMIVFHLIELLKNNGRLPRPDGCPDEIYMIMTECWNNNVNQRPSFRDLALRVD

isolated recombinant JAK1 kinase domain, sequence (P23458 875-1153): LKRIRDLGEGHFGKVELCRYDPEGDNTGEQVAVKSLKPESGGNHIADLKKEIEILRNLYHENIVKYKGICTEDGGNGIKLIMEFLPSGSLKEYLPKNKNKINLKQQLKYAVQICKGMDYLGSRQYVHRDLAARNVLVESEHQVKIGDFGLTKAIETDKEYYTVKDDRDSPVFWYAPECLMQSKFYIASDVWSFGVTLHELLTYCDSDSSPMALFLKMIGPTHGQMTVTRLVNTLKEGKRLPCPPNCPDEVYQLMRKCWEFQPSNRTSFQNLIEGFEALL

SMILES	pKi [1]	pKi [2]
O=C(Nc1cn(CC(=O)N2CCC(O)(c3ccncc3)CC2)nc1-c1cc(Cl)ccc1OC(F)F)c1cnn2cccnc12 [Example 276, N-[3-[5-chloro-2-(difluoromethoxy)phenyl]-1-[2-[4-hydroxy-4-(4-pyridyl)-1-piperidyl]-2-oxo-ethyl]pyrazol-4-yl]pyrazolo[1,5-a]pyrimidine-3-carboxamide]	9.64	9.74
CN(C)CCOC1CCN(C(=O)Cn2cc(NC(=O)c3c(N)nn4cccnc34)c(-c3cc(Cl)ccc3OC(F)F)n2)CC1 [Example 137, 2-amino-N-[3-[5-chloro-2-(difluoromethoxy)phenyl]-1-[2-[4-[2-(dimethylamino)ethoxy]-1-piperidyl]-2-oxo-ethyl]pyrazol-4-yl]pyrazolo[1,5-a]pyrimidine-3-carboxamide]	9.28	9.14
O=C(Nc1cn(CC(=O)N2CCC(OCCO)CC2)nc1-c1cc(Cl)ccc1OC(F)F)c1cnn2cccnc12 [Example 275, N-[3-[5-chloro-2-(difluoromethoxy)phenyl]-1-[2-[4-(2-hydroxyethoxy)-1-piperidyl]-2-oxo-ethyl]pyrazol-4-yl]pyrazolo[1,5-a]pyrimidine-3-carboxamide]	9.51	9.05
N#CC1(c2ccccc2)CCN(C(=O)Cn2cc(NC(=O)c3c(N)nn4cccnc34)c(-c3cc(Cl)ccc3OC(F)F)n2)CC1 [Example 283, 2-amino-N-[3-[5-chloro-2-(difluoromethoxy)phenyl]-1-[2-(4-cyano-4-phenyl-1-piperidyl)-2-oxo-ethyl]pyrazol-4-yl]pyrazolo[1,5-a]pyrimidine-3-carboxamide]	9.26	9.54
Nc1nn2cccnc2c1C(=O)Nc1cn(CC(=O)N2CCC(Oc3ccccc3)CC2)nc1-c1cc(Cl)ccc1OC(F)F [Example 285, 2-amino-N-[3-[5-chloro-2-(difluoromethoxy)phenyl]-1-[2-oxo-2-(4-phenoxy-1-piperidyl)ethyl]pyrazol-4-yl]pyrazolo[1,5-a]pyrimidine-3-carboxamide]	9.21	9.33
Nc1nn2cccnc2c1C(=O)Nc1cn(CC(=O)N2CCN(CC3CC3)CC2)nc1-c1cc(Cl)ccc1OC(F)F [Example 248, 2-amino-N-[3-[5-chloro-2-(difluoromethoxy)phenyl]-1-[2-[4-(cyclopropyl-methyl)piperazin-1-yl]-2-oxo-ethyl]pyrazol-4-yl]pyrazolo[1,5-a]pyrimidine-3-carboxamide]	9.21	9.41
C[C@@H]1CN(C(=O)Cn2cc(NC(=O)c3c(N)nn4cccnc34)c(-c3cc(Cl)ccc3OC(F)F)n2)C[C@H](C)N1 [Example 251, 2-amino-N-[3-[5-chloro-2-(difluoromethoxy)phenyl]-1-[2-[(3R,5S)-3,5-dimethylpiperazin-1-yl]-2-oxo-ethyl]pyrazol-4-yl]pyrazolo[1,5-a]pyrimidine-3-carboxamide]	9.08	–
CN(C)C1CN(C(=O)Cn2cc(NC(=O)c3c(N)nn4cccnc34)c(-c3cc(Cl)ccc3OC(F)F)n2)C1 [Example 138, 2-amino-N-[3-[5-chloro-2-(difluoromethoxy)phenyl]-1-[2-[3-(dimethylamino)azetidin-1-yl]-2-oxo-ethyl]pyrazol-4-yl]pyrazolo[1,5-a]pyrimidine-3-carboxamide]	9.28	–
Nc1nn2cccnc2c1C(=O)Nc1cn(CC(=O)N2CC[C@H](O)C2)nc1-c1cc(Cl)ccc1OC(F)F [Example 270, 2-amino-N-[3-[5-chloro-2-(difluoromethoxy)phenyl]-1-[2-[(3S)-3-hydroxypyrrolidin-1-yl]-2-oxo-ethyl]pyrazol-4-yl]pyrazolo[1,5-a]pyrimidine-3-carboxamide]	–	9.70
CN1CCC2(CC1)CN(C(=O)Cn1cc(NC(=O)c3c(N)nn4cccnc34)c(-c3cc(Cl)ccc3OC(F)F)n1)CCO2 [Example 215, 2-amino-N-[3-[5-chloro-2-(difluoromethoxy)phenyl]-1-[2-(9-methyl-1-oxa-4,9-diazaspiro[5.5]undecan-4-yl)-2-oxo-ethyl]pyrazol-4-yl]pyrazolo[1,5-a]pyrimidine-3-carboxamide]	8.88	–
